Reference: publication PMC3892053, “Pharmacokinetic/pharmacodynamic modeling for the determination of a cimicoxib dosing regimen in the dog” (BMC Veterinary Research, 2013)
Like-named read-outs stand apart in the source and are kept apart here.

How the values were obtained:
[1] = tested on: peri-operative pain; pain and inflammation associated with osteoarthritis; conditions: inferiority limit 20%, cited from earlier work
[2] = Plasma half-life after oral administration in four dog breeds (Study 2); type: in vivo; conditions: both sexes, 2 mg/kg
Experimental: Four different sized-breeds from four different private breeders were tested (ten individuals were used from each breed): Anglo-French Hounds, Pointers, Cavalier King Charles Spaniels and Bernese Mountain Dogs. The bodyweights of the dogs ranged between [27.2, 37.4], [16.8, 22.3], [7, 9.8], [44.5, 62.5] kg; the ages were [0.6, 2.5], [1.9, 11.8], [1.7, 6.7], [1.4, 6.4] years for the Anglo-French Hounds, Pointers, Cavalier King Charles Spaniels and Bernese Mountain Dogs breeds, respectively. The sex ratios (male/female) were 5/5, 6/4, 4/6 and 4/6 for these same breeds. Prior to the experiment, all the animals underwent a clinical examination by a veterinarian, along with a complete biochemistry profile. No clinically important abnormality was noted during these examinations.
The half-life of elimination of cimicoxib was studied in four different sized breeds (40 dogs). Two mg/kg of cimicoxib was administered orally, in the form of 10 and 20 mg (hard gelatin capsules, Vetoquinol). For each dog, four blood samples (5 mL, heparinized tubes) were taken, at 6 h, 8 h, 10 h and 24 h after administration of cimicoxib, centrifuged (3000 G) and stored (- 20°C).
Plasma samples were analyzed by a High Performance Liquid Chromatography (HPLC) method using ultraviolet (UV) detection. Briefly, an internal standard (UR-8877) and cimicoxib (UR-8880) were extracted from plasma by a solid liquid (methanol) extraction process using HLB Oasis cartridges (Waters). The extraction yield was about 90%. The HPLC apparatus consists of a pump system equipped with an automatic injector and an UV detector (242 nm). […] The mobile phase was a mixture of 0.65 L of ultra-pure water and 0.35 L of acetonitrile which was delivered at a flow rate of 1 mL per min. Under these conditions, cimicoxib (UR-8880) and the internal standard (UR-8877) were eluted at retention times of 6 to 7 min and 10 to 11 min, respectively. The method was linear over the calibration range of 0.01 to 5 μg/mL using a linear model weighted by 1/X^2. Within-day and day-to-day coefficients of variation were less than 9% and the accuracy ranged from 94 to 103%, indicating an appropriate precision and accuracy for the analytical method. The lack of interference from endogenous compounds was verified on blank plasma from untreated dogs, establishing the specificity of the method. The validated limit of quantification was 0.01 μg/mL.
Half-life was estimated by log-linear regression (estimating the slope) using the non-compartmental approach implemented in Winnonlin.

- half-life ([2]; Anglo-French hound, po, oral 2 mg/kg, Anglo-French hounds (n = 10), read-out: plasma half-life, Maximum (converted)): 4 h
- half-life ([2]; Anglo-French hound, po, oral 2 mg/kg, Anglo-French hounds (n = 10), read-out: plasma half-life, Mean (converted)): 3.2 h
- half-life ([2]; Anglo-French hound, po, oral 2 mg/kg, Anglo-French hounds (n = 10), read-out: plasma half-life, Minimum (converted)): 2 h
- half-life ([2]; Bernese mountain dog, po, oral 2 mg/kg, Bernese mountain dogs (n = 10), read-out: plasma half-life, Maximum (converted)): 5.8 h
- half-life ([2]; Bernese mountain dog, po, oral 2 mg/kg, Bernese mountain dogs (n = 10), read-out: plasma half-life, Mean (converted)): 4.4 h
- half-life ([2]; Bernese mountain dog, po, oral 2 mg/kg, Bernese mountain dogs (n = 10), read-out: plasma half-life, Minimum (converted)): 3.2 h
- half-life ([2]; Cavalier King Charles spaniel, po, oral 2 mg/kg, Cavalier King Charles spaniels (n = 10), read-out: plasma half-life, Maximum (converted)): 3.5 h
- half-life ([2]; Cavalier King Charles spaniel, po, oral 2 mg/kg, Cavalier King Charles spaniels (n = 10), read-out: plasma half-life, Mean (converted)): 2.7 h
- half-life ([2]; Cavalier King Charles spaniel, po, oral 2 mg/kg, Cavalier King Charles spaniels (n = 10), read-out: plasma half-life, Minimum (converted)): 1.9 h
- half-life ([2]; Pointer, po, oral 2 mg/kg, Pointers (n = 10), read-out: plasma half-life, Maximum (converted)): 5.9 h
- half-life ([2]; Pointer, po, oral 2 mg/kg, Pointers (n = 10), read-out: plasma half-life, Mean (converted)): 3.9 h
- half-life ([2]; Pointer, po, oral 2 mg/kg, Pointers (n = 10), read-out: plasma half-life, Minimum (converted)): 2.5 h
- half-life ([2]; oral, the 40 dogs of four breeds, as summarised in Discussion, read-out: terminal half-life): 2 to 4 h
Compound: COc1ccc(-c2c(Cl)ncn2-c2ccc(S(N)(=O)=O)cc2)cc1F [cimicoxib]
- comparison against firocoxib, primary efficacy endpoint ([1]; pain and inflammation associated with osteoarthritis): non-inferiority
- comparison to carprofen on pain during the first 24 hours (composite pain clinical score) ([1]; peri-operative pain, orthopaedic or soft tissue surgery, carprofen 4 mg/kg per day): non-inferiority
